Data published in ChEMBL document CHEMBL1126533, “Synthesis of a potential photoaffinity labelling reagent for HIV-1 reverse transcriptase” (Bioorg Med Chem Lett, 1993).
pEC50: −log10 of the molar value.

What was measured:
MT4 [1] = experiment: Cytotoxic concentration required to reduce viability of mock-infected MT-4 cells by 50%; assay type: functional; details: Homo sapiens
MT4 [2] = experiment: Effective concentration required to achieve 50% protection of MT-4 cells against the cytopathic effect of HIV-1; assay type: functional, cell-based; details: Homo sapiens

SMILES | CC50 (MT4 [1]) | pEC50 (MT4 [2])
CCOCn1c(Cc2cccc(O)c2)c(CC)c(=O)[nH]c1=O | 201 µM | 6.40
CCOCn1c(Sc2ccccc2)c(CC)c(=O)[nH]c1=O | 197 µM | 7.74
CCOCn1c(C(OC(C)=O)c2cccc([N+](=O)[O-])c2)c(CC)c(=O)[nH]c1=O (stereo not drawn) | 283 µM | 4.54
CCOCn1c(Cc2cccc(N=[N+]=[N-])c2)c(CC)c(=O)[nH]c1=O | 117 µM | 7.96
CCOCn1c(Cc2cccc(N)c2)c(CC)c(=O)[nH]c1=O | 297 µM | 6.85
CCOCn1c(C(=O)c2cccc([N+](=O)[O-])c2)c(CC)c(=O)[nH]c1=O | 232 µM | 6.68
Cc1c(Sc2ccccc2)n(COCCO)c(=O)[nH]c1=O [HEPT] | 740 µM | –
